Reference: patent US20100226917A1, “METHODS FOR THE TREATMENT OF HEMATOLOGIC MALIGNANCIES” (AstraZeneca AB, priority 2007, published 2010)

Experiments:
[1] = tested on: Mec1 chronic B cell leukemia cell line; assay: Cell Titer-Glo luminescent cell viability assay, Mec1 cell line; type: cell-based; conditions: Homo sapiens; Mec1, 48 hour treatment
Method: (§1) Chronic B cell leukemia cell lines (JVM2 and Mec1) (American Type Culture Collection (ATCC), Manassas, Va.) were plated in 96 well plates and 24 hours later were treated with increasing concentrations of a CHK1 inhibitor (Formula 1.1). Following 48 hour treatment cell viability was measured using Cell Titer-Glo® luminescent cell viability assay (Promega, Madison, Wis.).

[2] = tested on: JVM2 chronic B cell leukemia cell line; assay: Cell Titer-Glo luminescent cell viability assay, JVM2 cell line; type: cell-based; conditions: Homo sapiens, JVM-2; JVM2, 48 hour treatment
Method: as §1

[3] = tested on: tumor cells isolated from CLL patients; assay: Ex vivo cell viability (Cell Titer-Glo) of mononuclear cells isolated from CLL patient blood; type: cell-based, human; conditions: 48 hour treatment; for IC50: Homo sapiens
Method: Blood samples (10 mls) were collected from CLL patients and placed on ice. Whole blood was then diluted with phosphate buffered saline (PBS) (2-3 fold dilution) and carefully layered over 12 mls Ficoll-paque (GE Healthcare, Westborough, Mass.) in a 50 ml conical tube. Samples were then centrifuged at 3500 rpm for 35 minutes without break at room temperature. Plasma was removed and opaque interphase containing mononuclear cells was collected and placed into a clean conical centrifuge tube. Cells were then washed twice with PBS with 1% fetal bovine serum (FBS). Following final wash, cells were resuspended in 5˜10 mls RPMI 1640 (Invitrogen, Grand Island, N.Y.) plus 10% fetal calf serum (FCS) medium. Cells were then counted by Trypan blue exclusion method and viability and purity assessed.
Cells were then plated into 96 well plates (1×10^5 cells/well) and incubated overnight in a drug free medium. The next morning cells were treated with fludarabine (1, 3 and 10 μM), gemcitabine (0.1 and 1 μM), CHK1 inhibitor of Formula 1.1 (0.01, 0.1 and 0.5 μM) or the combination of fludarabine and CHK1 inhibitor or gemcitabine and CHK1 inhibitor. […] Following 48 hour treatment, cell viability was measured using Cell Titer-Glo® luminescent cell viability assay (Promega, Madison, Wis.).

[4] = tested on: marrow mononuclear cells from patients with acute myelogenous leukemia; assay: Colony formation of AML patient marrow mononuclear cells in methylcellulose; type: cell-based, human; conditions: 30-300 nM, 48-hour incubation, colonies scored after 14 days, 9 AML patient samples
Method: Marrow mononuclear cells from 9 patients with acute myelogenous leukemia were isolated by sedimentation on Ficoll-Hypaque density gradients (English et al. Single-Step Separation of Red Blood Cells. Granulocytes and Mononuclear Leukocytes on Discontinuous Density Gradients of Ficoll-Hypaque. Journal of Immunological Methods, 5: 249-252, 1974). After removal of an aliquot for staining to determine the percentage of blasts, replicate aliquots containing 1×10^6 cells in 1 ml Improved Dulbecco's Medium containing 20% heat-inactivated fetal bovine serum, 50 units/ml penicillin G, 50 μg/ml streptomycin and 2 mM glutamine (medium A) were treated with diluent (0.2% dimethyl sulfoxide), increasing concentrations of cytarabine alone (25-300 nM), increasing concentrations of a CHK-1 inhibitor (formula 1.1) (30-300 nM), or increasing concentrations of cytarabine in the presence of 100 nM of a CHK-1 inhibitor (Formula 1.1). […] Following a 14-day incubation at 37° C., colonies containing ≧50 cells were scored on an inverted microscope using established criteria (Eaves, C. and Lambie, K. Atlas of human hematopoietic colonies. Vancouver: StemCell Technologies Inc., 1995). […]

[5] = molecular target: T1, CD20 antigen (Homo sapiens, UniProt P11836); conditions: read-out: binding affinity; cited from earlier work
T1 sequence (P11836 1-297): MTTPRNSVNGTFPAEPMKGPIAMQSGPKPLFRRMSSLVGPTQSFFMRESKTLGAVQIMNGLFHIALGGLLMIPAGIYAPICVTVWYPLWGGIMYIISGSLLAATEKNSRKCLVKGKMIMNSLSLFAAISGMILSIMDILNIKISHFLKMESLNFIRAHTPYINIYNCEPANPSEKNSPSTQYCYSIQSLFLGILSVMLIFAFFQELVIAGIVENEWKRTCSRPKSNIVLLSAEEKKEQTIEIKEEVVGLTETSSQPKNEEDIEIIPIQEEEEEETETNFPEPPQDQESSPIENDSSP

[6] = relapsed patient who one week prior received rituximab treatment
[7] = newly diagnosed patient who had not received previous treatment

**Q.** What does the source list for `NC(=O)Nc1cc(-c2cccc(F)c2)sc1C(=O)N[C@H]1CCCNC1` [Formula 1.1, 5-(3-Fluoro-phenyl)-3-ureido-thiophene-2-carboxylic acid (S)-piperidin-3-ylamide]?
**A.** GI50 [1]: 79 nM; GI50 [2]: 13 nM; IC50 [3, 6]: 11 nM; response (cell viability) [3, 7]: not; samples showing single agent sensitivity [4]: Four out of nine samples

**Q.** With `Nc1nc(F)nc2c1ncn2[C@@H]1O[C@H](CO)[C@@H](O)[C@@H]1O` [fludarabine] as the compound, how does the IC50 [3, 7] read?
**A.** 560 nM

**Q.** And the IC50 [3, 6]?
**A.** 5100 nM

**Q.** For `Nc1ccn([C@@H]2O[C@H](CO)[C@@H](O)C2(F)F)c(=O)n1` [gemcitabine], which “response (cell viability)” value [3, 7] is on record?
**A.** not

**Q.** What about the “response (cell viability)” value [3, 6] of the same compound?
**A.** not

**Q.** Which Kd [5] does the source give for rituximab here?
**A.** ~8 nM
